In article PMC7432809, “Antimicrobial Activity of Small Synthetic Peptides Based on the Marine Peptide Turgencin A: Prediction of Antimicrobial Peptide Sequences in a Natural Peptide and Strategy for Optimization of Potency” (International Journal of Molecular Sciences, 2020):
Where no end group is shown, it is not given here.

What was measured:
[1] = tested on: Bacillus megaterium; assay: microbe, parasite or virus in culture; format: cell-based; conditions: Bacillus, 24 h
Procedure: (§1) The synthesized peptides were screened for antibacterial activity against five strains of G+ bacteria: B. subtilis (Bs, ATCC 23857), C. glutamicum (Cg, ATCC 13032), S. aureus (Sa, ATCC 9144), Micrococcus luteus (Ml), B. megaterium (Bm) (the last two were obtained from professor Olaf B. Styrvold, UiT The Arctic University of Norway).
(§2) Two strains of G- bacteria, P. aeruginosa (Pa, ATCC 27853) and E. coli (Ec, ATCC 25922), were also used. Cultures stored at -80 °C in glycerol were transferred to Müller–Hinton plates (MH, Difco Laboratories, Detroit, MI, USA) and incubated for 24 h at 35 °C. Colonies of each strain were transferred to 5 mL liquid MH medium and left shaking (600 rpm) at room temperature overnight. An aliquot of actively growing bacteria (20 µL) was inoculated in 5 mL MH medium and left shaking for 2 h at room temperature. In order to have a sensitive bioassay, the bacterial cultures were diluted with medium to only 2.5–3 × 10^4 bacteria/mL and an aliquot of 50 µL was added to each well in 96 microwell plates (Thermo Fisher Scientific, Roskilde, Denmark) preloaded with peptide solution (50 µL). The antibacterial assays were performed as previously described. The microtiter plates were incubated for 24 h at 35 °C with optical density (595 nm) recorded every hour using an Envision 2103 multilabel reader, controlled by a Wallac Envision manager (PerkinElmer, Waltham, MA, USA). The minimum inhibitory concentration (MIC) was defined as the sample concentration showing an optical density less than 10% of the negative (growth) control, consisting of bacteria and MQ-H2O. Oxytetracycline (concentrations ranging from 20–0.02 µg/mL, Sigma-Aldrich) and indolicidin (concentration ranging from 200–0.2 µg/mL, Sigma-Aldrich) served as a positive (inhibition) control. The synthetic peptides were tested for antibacterial activity in concentrations ranging from 250 to 0.5 µg/mL in two-fold dilutions. All tests were performed in triplicates.

[2] = tested on: Bacillus subtilis (ATCC 23857); assay: microbe, parasite or virus in culture; format: cell-based; conditions: ATCC 23857, 24 h
Procedure: as §1, §2

[3] = tested on: Corynebacterium glutamicum (ATCC 13032); assay: microbe, parasite or virus in culture; format: cell-based; conditions: ATCC 13032, 24 h
Procedure: as §1, §2

[4] = tested on: Micrococcus luteus; assay: microbe, parasite or virus in culture; format: cell-based; conditions: 24 h
Procedure: as §1, §2

[5] = tested on: Staphylococcus aureus (ATCC 9144); assay: microbe, parasite or virus in culture; format: cell-based; conditions: ATCC 9144, 24 h
Procedure: as §1, §2

[6] = tested on: Escherichia coli (ATCC 25922); assay: microbe, parasite or virus in culture; format: cell-based; conditions: ATCC 25922, 24 h
Procedure: as §2

[7] = tested on: Pseudomonas aeruginosa (ATCC 27853); assay: microbe, parasite or virus in culture; format: cell-based; conditions: ATCC 27853, 24 h
Procedure: as §2

[8] = tested on: Aureobasidium pullulans; assay: microbe, parasite or virus in culture; format: cell-based; conditions: 48 h
Procedure: (§3) StAMP-1–11 were screened for antifungal activity against C. albicans (Ca, ATCC 10231), A. pullulans (Ap) and Rhodotorula sp. (Rh) (the last two were obtained from professor Arne Tronsmo, The Norwegian University of Life Sciences, Ås, Norway). The antifungal assay was performed as previously described with a few modifications. Briefly, fungal spores were dissolved in potato dextrose broth (Difco Laboratories) with 2% D(+)-glucose (Merck, Darmstadt, Germany) to a concentration of 4 × 10^5 spores/mL. The spores (50 µL) were inoculated on 96 microwell plates (Thermo Fisher Scientific) containing the synthetic peptides (50 µL) and controls (water or antibiotic). The peptides were diluted in MQ-H2O at final concentrations ranging from 250–3.9 µg/mL in two-fold serial dilutions. Triclosan (Sigma-Aldrich, Steinheim, Germany) was used as a positive (antifungal) control (32–0.25 µg/mL), and MQ-H2O as a negative (growth) control. Cultures were grown in room temperature for 24 h (Ca) and 48 h (Ap and Rh). Growth inhibition was determined by measuring OD values at 600 nm by a microplate reader (Synergy H1 Hybrid Multi-Mode Reader, BioTek, Winooski, VT, USA). […] All experiments were done in triplicate.

[9] = tested on: Candida albicans (ATCC 10231); assay: microbe, parasite or virus in culture; format: cell-based; conditions: ATCC 10231, 24 h
Procedure: as §3

[10] = tested on: Rhodotorula sp.; assay: microbe, parasite or virus in culture; format: cell-based; conditions: 48 h
Procedure: as §3

[11] = tested on: G+ strains; assay: Antibacterial assay, MIC range over G+ strains; format: cell-based; conditions: range over the five G+ test strains
Procedure: as §1
as §2, with “The minimum inhibitory concentration (MIC) was defined as the sample concentration showing an optical density less than 10% of the negative (growth) control, consisting of bacteria and MQ-H2O. Oxytetracycline (concentrations ranging from 20–0.02 µg/mL, Sigma-Aldrich) and indolicidin (concentration ranging from 200–0.2 µg/mL, Sigma-Aldrich) served as a positive (inhibition) control. The synthetic peptides were tested for antibacterial activity in concentrations ranging from 250 to 0.5 µg/mL in two-fold dilutions. All tests were performed in triplicates.” left out

[12] = tested on: G- strains; assay: Antibacterial assay, MIC range over G- strains; format: cell-based; conditions: range over the two G- test strains
Procedure: as §1
as §2, with “The minimum inhibitory concentration (MIC) was defined as the sample concentration showing an optical density less than 10% of the negative (growth) control, consisting of bacteria and MQ-H2O. Oxytetracycline (concentrations ranging from 20–0.02 µg/mL, Sigma-Aldrich) and indolicidin (concentration ranging from 200–0.2 µg/mL, Sigma-Aldrich) served as a positive (inhibition) control. The synthetic peptides were tested for antibacterial activity in concentrations ranging from 250 to 0.5 µg/mL in two-fold dilutions. All tests were performed in triplicates.” left out

[13] = tested on: three fungal strains; format: cell-based; conditions: 24 h
Procedure: as §3, with “Cultures were grown in room temperature for 24 h (Ca) and 48 h (Ap and Rh).” left out

[14] = tested on: B. subtilis 168 (pCSS962); assay: Real-time membrane integrity assay (luciferase, D-luciferin); format: cell-based, Bacillus subtilis; conditions: lowest concentration tested
Source text: (§4) Based on the results from antibacterial screening and the bacterial killing experiment, StAMP-6-10 were further studied for their immediate effect on the membrane integrity and viability on B. subtilis 168 and E. coli K12. In the integrity assay, both bacteria are carrying the luciferase lucGR gene within the plasmid pCSS962. When a compound disrupts the membrane, externally added D-luciferin can diffuse into the cells and function as a substrate for the luciferase enzyme. This, in turn, causes the emission of light as relative luminescence units (RLU), a signal whose strength is relative to the degree of membrane disruption in living cells. If the test compound affects the membrane sufficiently to cause bacterial death, the RLU signal will increase until the bacterial ATP storage is empty. At this time, the RLU signal will decrease in line with the decreasing ATP concentrations, as the enzymatic reaction gradually stops. […] Following membrane disruption, the RLU will reach its peak and start to decrease due to reduced cell numbers. In the assay setup used herein, RLU was measured over a period of 3 min. The short time period was selected as many membrane disruptive compounds usually affect the bacterial membranes immediately. […]

[15] = tested on: E. coli K12 (pCSS962); assay: as above; format: cell-based, Escherichia coli; conditions: lowest concentration tested
Source text: as §4

[16] = tested on: B. subtilis 168; assay: Real-time bacterial cell viability assay (lux operon); format: cell-based, Bacillus subtilis; conditions: lowest concentration tested
Source text: (§5) A real-time cell viability assay was used to investigate the bactericidal effect of StAMP-6-10. B. subtilis 168 contains a chromosomally integrated lux operon, and E. coli K12 a plasmid-borne lux operon. Both strains emit light as long as they have an active metabolism. If a compound reduces the metabolic activity of the bacteria it will reduce the viability of the cells. […] The decrease in light emission caused by StAMP-8-10 shown in both assays confirmed that these three peptides killed both strains at 50 µg/mL, but not as rapidly as the control chlorhexidine. The same activity observed for StAMP-8-10 in the membrane integrity assay was also observed in both viability assays (Figures S7–S12). […] Only at the lowest concentration tested (0.8 µg/mL), was there no observed membrane activity for these assays.
(§6) A real-time cell viability assay (modified from) was performed using B. subtilis 168 carrying an optimized luxABCDE operon controlled by the promoter Pveg, and E. coli K12 carrying the plasmid pCGLS-11 [53] with the luxCDABE operon from Xenorhabdus luminescence. The procedure was conducted as previously described. The bacteria (~5 × 10^7 bacteria/mL) were subjected to ranging concentrations of StAMP-6-10 (50–3.1 µg/mL) and the positive control to chlorhexidine acetate (assay concentrations 100–1.6 µg/mL). MQ-H2O was used as a negative control. […]

[17] = tested on: E. coli K12 (pCGLS-11); assay: as above; format: cell-based, Escherichia coli; conditions: lowest concentration tested
Source text: as §5, §6

[18] = tested on: all seven bacterial test strains; format: cell-based; conditions: 24 h
Procedure: as §1
as §2, with “The minimum inhibitory concentration (MIC) was defined as the sample concentration showing an optical density less than 10% of the negative (growth) control, consisting of bacteria and MQ-H2O. Oxytetracycline (concentrations ranging from 20–0.02 µg/mL, Sigma-Aldrich) and indolicidin (concentration ranging from 200–0.2 µg/mL, Sigma-Aldrich) served as a positive (inhibition) control. The synthetic peptides were tested for antibacterial activity in concentrations ranging from 250 to 0.5 µg/mL in two-fold dilutions. All tests were performed in triplicates.” left out

Compound | Antimicrobial Activity (MIC) Bm [1] [µg/mL] | Antimicrobial Activity (MIC) Bs [2] [µg/mL] | Antimicrobial Activity (MIC) Cg [3] [µg/mL] | Antimicrobial Activity (MIC) Ml [4] [µg/mL] | Antimicrobial Activity (MIC) Sa [5] [µg/mL] | Antimicrobial Activity (MIC) Ec [6] [µg/mL] | Antimicrobial Activity (MIC) Pa [7] [µg/mL] | Antimicrobial Activity (MIC) Ap [8] [µg/mL] | Antimicrobial Activity (MIC) Ca [9] [µg/mL] | Antimicrobial Activity (MIC) Rh [10] [µg/mL] | MIC values, range against G+ strains [11] [µg/mL] | MIC values, range against G- strains [12] [µg/mL] | MIC, range against the three fungal strains [13] [µg/mL] | concentration with no observed membrane activity [14] [µg/mL] | concentration with no observed membrane activity [15] [µg/mL] | concentration with no observed membrane activity [16] [µg/mL] | concentration with no observed membrane activity [17] [µg/mL] | MIC values, range against all seven bacterial test strains [18] [µg/mL]
GKKPWWWKAK-NH2 [StAMP-7] | 1.0 | 3.9 | 2.0 | 31.3 | 125 | 31.3 | 250 | 15.6 | 31.3 | 15.6 | 1.0 to 125 | 31.3 to 250 | – | – | – | – | – | –
GKKWWWWKAK-NH2 [StAMP-8] | 3.9 | 7.8 | 7.8 | 15.6 | 125 | 62.5 | 125 | 7.8 | 15.6 | 15.6 | – | – | 7.8 to 15.6 | – | – | – | – | –
[H]/N=C(\N/C(=N/[H])NCCCCCCNC(=N)NC(=N)Nc1ccc(Cl)cc1)Nc1ccc(Cl)cc1 [Chlorhexidine] | – | – | – | – | – | – | – | – | – | – | – | – | – | 0.8 | 0.8 | 0.8 | 0.8 | –
GRRPWWWRAR-NH2 [StAMP-9] | 1.0 | 3.9 | 2.0 | 3.9 | 7.8 | 7.8 | 31.3 | 31.3 | 31.3 | 15.6 | – | – | – | – | – | – | – | 1.0 to 31.3
